Tests used:
KRas G12V = KRas G12V (Homo sapiens, UniProt P01116, G12V); experiment: biochemical; settings: Binding to KRas (IC50 nM) G12V, TR-FRET displacement, KRas G12V
KRas G12S = KRas G12S (Homo sapiens, UniProt P01116, G12S); format: binding; settings: TR-FRET displacement, read-out: Binding to KRas (IC50 nM) G12S
KRas G13D = KRas G13D (Homo sapiens, UniProt P01116, G13D); format: binding; settings: TR-FRET displacement, read-out: Binding to KRas (IC50 nM) G13D
KRas G12C = KRas G12C (Homo sapiens, UniProt P01116, G12C); format: binding; settings: TR-FRET displacement, read-out: Binding to KRas (IC50 nM) G12C
Chain of KRas G12C (P01116 1-169 isoform P01116-2 G12C): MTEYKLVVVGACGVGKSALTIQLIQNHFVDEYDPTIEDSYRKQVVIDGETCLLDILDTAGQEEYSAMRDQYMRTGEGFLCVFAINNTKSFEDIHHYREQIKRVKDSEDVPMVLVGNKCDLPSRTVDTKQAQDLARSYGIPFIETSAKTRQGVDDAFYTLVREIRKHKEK

KRas G12R = KRas G12R (Homo sapiens, UniProt P01116, G12R); experiment: biochemical; settings: Binding to KRas (IC50 nM) G12R, TR-FRET displacement, KRas G12R
Chain of KRas G12R (P01116 1-169 isoform P01116-2 G12R): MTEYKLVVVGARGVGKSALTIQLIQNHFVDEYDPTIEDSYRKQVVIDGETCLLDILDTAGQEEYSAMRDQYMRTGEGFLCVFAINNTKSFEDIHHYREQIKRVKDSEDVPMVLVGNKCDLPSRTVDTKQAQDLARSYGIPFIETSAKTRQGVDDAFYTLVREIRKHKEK

KRas WT = KRas WT (Homo sapiens, UniProt P01116); experiment: KRas binding assay (TR-FRET displacement), KRas WT; settings: TR-FRET displacement
Chain of KRas WT (P01116 1-169 isoform P01116-2): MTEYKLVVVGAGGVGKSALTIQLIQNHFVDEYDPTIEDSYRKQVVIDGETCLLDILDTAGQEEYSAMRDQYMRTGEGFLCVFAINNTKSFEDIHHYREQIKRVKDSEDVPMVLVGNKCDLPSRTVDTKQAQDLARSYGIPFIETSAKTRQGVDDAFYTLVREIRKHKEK

KRas G12D = KRas G12D (Homo sapiens, UniProt P01116, G12D); experiment: biochemical; settings: Binding to KRas (IC50 nM) G12D, TR-FRET displacement, KRas G12D
Chain of KRas G12D (P01116 1-169 isoform P01116-2 G12D): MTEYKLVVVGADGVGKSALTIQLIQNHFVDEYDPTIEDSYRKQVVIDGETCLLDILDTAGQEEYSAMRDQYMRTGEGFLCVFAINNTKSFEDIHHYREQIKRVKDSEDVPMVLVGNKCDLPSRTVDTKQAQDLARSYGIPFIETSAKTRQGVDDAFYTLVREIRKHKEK

KRas G12A = KRas G12A (Homo sapiens, UniProt P01116, G12A); format: binding; settings: TR-FRET displacement, read-out: Binding to KRas (IC50 nM) G12A
Chain of KRas G12A (P01116 1-169 isoform P01116-2 G12A): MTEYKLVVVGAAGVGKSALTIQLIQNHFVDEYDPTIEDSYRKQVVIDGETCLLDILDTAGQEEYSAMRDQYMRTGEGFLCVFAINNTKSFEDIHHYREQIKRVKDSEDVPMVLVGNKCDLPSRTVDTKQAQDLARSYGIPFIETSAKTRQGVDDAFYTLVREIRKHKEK

KRas Q61H = KRas Q61H (Homo sapiens, UniProt P01116, Q61H); experiment: KRas binding assay (TR-FRET displacement), KRas Q61H; settings: TR-FRET displacement
Chain of KRas Q61H (P01116 1-169 isoform P01116-2 Q61H): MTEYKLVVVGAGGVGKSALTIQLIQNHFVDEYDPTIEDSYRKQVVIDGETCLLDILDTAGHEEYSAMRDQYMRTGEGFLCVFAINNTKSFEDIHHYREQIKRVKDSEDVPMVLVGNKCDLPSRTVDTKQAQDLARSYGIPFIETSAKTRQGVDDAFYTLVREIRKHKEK

ASPC1 cells = experiment: Inhibition of KRas-mediated phosphorylation of ERK (Cisbio HTRF pERK), ASPC1 cells; format: cell-based; settings: Homo sapiens, AsPC-1 cells; for IC50: ASPC1, 3 h, 3 hr compound incubation, Cisbio pERK HTRF
H727 cells = experiment: Inhibition of KRas-mediated phosphorylation of ERK (Cisbio HTRF pERK), H727 cells; format: cell-based; settings: Homo sapiens; for IC50: NCI-H727, 3 h, 3 hr compound incubation, Cisbio pERK HTRF

Chain of KRas G12S (P01116 1-169 isoform P01116-2 G12S): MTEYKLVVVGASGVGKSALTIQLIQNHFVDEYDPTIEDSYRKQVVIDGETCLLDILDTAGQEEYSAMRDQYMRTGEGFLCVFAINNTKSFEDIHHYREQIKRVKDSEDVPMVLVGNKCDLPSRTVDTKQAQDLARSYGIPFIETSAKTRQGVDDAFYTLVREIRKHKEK
Chain of KRas G12V (P01116 1-169 isoform P01116-2 G12V): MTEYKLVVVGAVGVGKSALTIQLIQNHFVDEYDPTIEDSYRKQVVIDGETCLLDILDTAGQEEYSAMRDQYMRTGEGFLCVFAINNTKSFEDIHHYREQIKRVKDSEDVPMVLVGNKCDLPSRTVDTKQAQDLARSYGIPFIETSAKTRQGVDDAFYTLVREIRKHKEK
Chain of KRas G13D (P01116 1-169 isoform P01116-2 G13D): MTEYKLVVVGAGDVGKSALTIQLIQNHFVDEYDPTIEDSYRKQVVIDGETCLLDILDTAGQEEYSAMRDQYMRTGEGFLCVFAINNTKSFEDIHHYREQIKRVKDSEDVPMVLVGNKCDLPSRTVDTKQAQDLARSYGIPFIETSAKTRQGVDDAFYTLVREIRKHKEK

With `CCc1cccc2cccc(N3CCc4c(nc(OCC56CCCN5CCC6)nc4N4CCC(O)CC(S(C)(=O)=O)C4)C3)c12` (single isomer, unassigned) [Example 479, 1-(7-(8-ethylnaphthalen-1-yl)-2-((tetrahydro-1H-pyrrolizin-7a(5H)-yl)methoxy)-5,6,7,8-tetrahydropyrido[3,4-d]pyrimidin-4-yl)-6-(methylsulfonyl)azepan-4-ol] the IC50 (KRas G12V) was 54 nM, the IC50 (KRas G12S) was 56 nM and the IC50 (KRas G13D) was 32 nM. It also gave an IC50 (KRas G12C) of 81 nM, an IC50 (KRas G12R) of 130 nM and an IC50 (KRas WT) of 33 nM. For the same compound, the IC50 (KRas G12D) was 99 nM, the IC50 (KRas G12A) was 55 nM and the IC50 (KRas Q61H) was 42 nM.
With `Cc1cc2[nH]ncc2c(N2CCc3c(nc(OCC45CCCN4CCC5)nc3N3CCCC4(CC(O)C4)C3)C2)c1C` (single isomer, unassigned; isomer 1) [Example 453, 6-(7-(5,6-dimethyl-1H-indazol-4-yl)-2-((hexahydro-1H-pyrrolizin-7a-yl)methoxy)-5,6,7,8-tetrahydropyrido[3,4-d]pyrimidin-4-yl)-6-azaspiro[3.5]nonan-2-ol (isomer 1)] the IC50 (KRas G12V) was 262 nM, the IC50 (KRas G12S) was 616 nM and the IC50 (KRas G13D) was 1150 nM. For the same compound, the IC50 (KRas G12C) was 464 nM, the IC50 (KRas G12R) was 680 nM and the IC50 (ASPC1 cells) was 9380 nM. The IC50 (KRas WT) was 826 nM, the IC50 (KRas G12D) was 604 nM and the IC50 (KRas G12A) was 523 nM. For the same compound, the IC50 (KRas Q61H) was 1150 nM and the IC50 (H727 cells) was 5760 nM.
`O=S1(=O)NCC2(CCCN(c3nc(OCC45CCCN4CCC5)nc4c3CCN(c3cc(O)cc(Cl)c3C3CC3)C4)C2)N1` (stereo not shown) [Example 438, 7-(7-(3-chloro-2-cyclopropyl-5-hydroxyphenyl)-2-((tetrahydro-1H-pyrrolizin-7a(5H)-yl)methoxy)-5,6,7,8-tetrahydropyrido[3,4-d]pyrimidin-4-yl)-2-thia-1,3,7-triazaspiro[4.5]decane 2,2-dioxide] was tested, and the IC50 (KRas G12V) was less than 2 nM, the IC50 (KRas G12S) was less than 2 nM and the IC50 (KRas G13D) was less than 2 nM. For the same compound, the IC50 (KRas G12C) was less than 2 nM, the IC50 (KRas G12R) was less than 2 nM and the IC50 (ASPC1 cells) was 5610 nM. It also gave an inhibition at 0.1 µM (ASPC1 cells; ASPC1, single point at 100 nM, 3 hrs compound incubation) of -4%, an IC50 (KRas WT) of less than 2 nM and an IC50 (KRas G12D) of less than 2 nM. It also gave an IC50 (KRas G12A) of less than 2 nM, an IC50 (KRas Q61H) of less than 2 nM and an IC50 (H727 cells) of 8000 nM. It also gave an inhibition at 0.1 µM (H727 cells; NCI-H727, single point at 100 nM, 3 hrs compound incubation) of -7%.
With `CCc1cccc2cccc(N3CCc4c(nc(OCC5(CN(C)C)CC5)nc4NCc4ccnn4CC(F)F)C3)c12` [Example 683, N-((1-(2,2-difluoroethyl)-1H-pyrazol-5-yl)methyl)-2-((1-((dimethylamino)methyl)cyclopropyl)methoxy)-7-(8-ethylnaphthalen-1-yl)-5,6,7,8-tetrahydropyrido[3,4-d]pyrimidin-4-amine] the IC50 (KRas G12V) was 5850 nM, the IC50 (KRas G12S) was 8600 nM and the IC50 (KRas G13D) was 16100 nM. For the same compound, the IC50 (KRas G12C) was 5450 nM, the IC50 (KRas WT) was 10800 nM and the IC50 (KRas G12D) was 8310 nM. For the same compound, the IC50 (KRas G12A) was 8280 nM and the IC50 (KRas Q61H) was 12100 nM.
In the case of `CCc1cccc2cccc(N3CCc4c(nc(OCC5(CN(C)C)CC5)nc4N4CCCN(CC(F)(F)F)CC4)C3)c12` [Example 684, 1-(1-(((7-(8-ethylnaphthalen-1-yl)-4-(4-(2,2,2-trifluoroethyl)-1,4-diazepan-1-yl)-5,6,7,8-tetrahydropyrido[3,4-d]pyrimidin-2-yl)oxy)methyl)cyclopropyl)-N,N-dimethylmethanamine], the IC50 (KRas G12V) is reported as 11200 nM, the IC50 (KRas G12S) is reported as 1960 nM and the IC50 (KRas G13D) is reported as 2220 nM. For the same compound, the IC50 (KRas G12C) was 1810 nM, the IC50 (KRas G12R) was 11400 nM and the IC50 (KRas WT) was 1880 nM. It also gave an IC50 (KRas G12D) of 41700 nM, an IC50 (KRas G12A) of 2640 nM and an IC50 (KRas Q61H) of 2210 nM.
For `CCc1cccc2cccc(N3CCc4c(nc(OCC5(CN(C)C)CC5)nc4N4CCC(n5cn[nH]c5=O)CC4)C3)c12` [Example 688, 4-(1-(2-((1-((dimethylamino)methyl)cyclopropyl)methoxy)-7-(8-ethylnaphthalen-1-yl)-5,6,7,8-tetrahydropyrido[3,4-d]pyrimidin-4-yl)piperidin-4-yl)-2,4-dihydro-3H-1,2,4-triazol-3-one], the IC50 (KRas G12V) was 6430 nM, the IC50 (KRas G12S) was 17700 nM and the IC50 (KRas G13D) was 14500 nM. It also gave an IC50 (KRas G12C) of 10000 nM, an IC50 (KRas WT) of 14600 nM and an IC50 (KRas G12D) of 37400 nM. It also gave an IC50 (KRas G12A) of 9730 nM and an IC50 (KRas Q61H) of 18100 nM.
`CCc1cccc2cccc(N3CCc4c(nc(OCC5(CN(C)C)CC5)nc4N4CCCn5nc(CO)cc5C4)C3)c12` [Example 694, (5-(2-((1-((dimethylamino)methyl)cyclopropyl)methoxy)-7-(8-ethylnaphthalen-1-yl)-5,6,7,8-tetrahydropyrido[3,4-d]pyrimidin-4-yl)-5,6,7,8-tetrahydro-4H-pyrazolo[1,5-a][1,4]diazepin-2-yl)methanol] was tested, and the IC50 (KRas G12V) was 437 nM, the IC50 (KRas G12S) was 946 nM and the IC50 (KRas G13D) was 4480 nM. It also gave an IC50 (KRas G12C) of 651 nM, an IC50 (KRas WT) of 1930 nM and an IC50 (KRas G12D) of 131 nM. It also gave an IC50 (KRas G12A) of 2220 nM and an IC50 (KRas Q61H) of 4850 nM.
In the case of `CCc1cccc2cccc(N3CCc4c(nc(OCC5(CN(C)C)CC5)nc4NC4CN(c5nccn6nc(C)cc56)C4)C3)c12` [Example 699, 2-((1-((dimethylamino)methyl)cyclopropyl)methoxy)-7-(8-ethylnaphthalen-1-yl)-N-(1-(2-methylpyrazolo[1,5-a]pyrazin-4-yl)azetidin-3-yl)-5,6,7,8-tetrahydropyrido[3,4-d]pyrimidin-4-amine], the IC50 (KRas G12V) is reported as 5460 nM, the IC50 (KRas G12S) is reported as 9980 nM and the IC50 (KRas G13D) is reported as 9980 nM. The IC50 (KRas G12C) was 4200 nM, the IC50 (KRas WT) was 7340 nM and the IC50 (KRas G12D) was 6150 nM. For the same compound, the IC50 (KRas G12A) was 8450 nM and the IC50 (KRas Q61H) was 8740 nM.
Work on `CCc1cccc2cccc(N3CCc4c(nc(OCC5(CN(C)C)CC5)nc4N(C)Cc4nnc5c(=O)n(C)ccn45)C3)c12` [Example 700, 3-(((2-((1-((dimethylamino)methyl)cyclopropyl)methoxy)-7-(8-ethylnaphthalen-1-yl)-5,6,7,8-tetrahydropyrido[3,4-d]pyrimidin-4-yl)(methyl)amino)methyl)-7-methyl-[1,2,4]triazolo[4,3-a]pyrazin-8(7H)-one] yielded an IC50 (KRas G12V) of 452 nM, an IC50 (KRas G12S) of 399 nM and an IC50 (KRas G13D) of 374 nM. For the same compound, the IC50 (KRas G12C) was 251 nM, the IC50 (KRas G12R) was 687 nM and the IC50 (KRas WT) was 522 nM. For the same compound, the IC50 (KRas G12D) was 1380 nM, the IC50 (KRas G12A) was 474 nM and the IC50 (KRas Q61H) was 577 nM.
In the case of `CCc1cccc2cccc(N3CCc4c(nc(OCC5(CN(C)C)CC5)nc4NCc4ncc5c(n4)CCOC5)C3)c12` [Example 701, N-((7,8-dihydro-5H-pyrano[4,3-d]pyrimidin-2-yl)methyl)-2-((1-((dimethylamino)methyl)cyclopropyl)methoxy)-7-(8-ethylnaphthalen-1-yl)-5,6,7,8-tetrahydropyrido[3,4-d]pyrimidin-4-amine], the IC50 (KRas G12V) is reported as 2030 nM, the IC50 (KRas G12S) is reported as 5830 nM and the IC50 (KRas G13D) is reported as 6620 nM. For the same compound, the IC50 (KRas G12C) was 3620 nM, the IC50 (KRas WT) was 5290 nM and the IC50 (KRas G12D) was 7730 nM. It also gave an IC50 (KRas G12A) of 6300 nM and an IC50 (KRas Q61H) of 6070 nM.
With `CCc1cccc2cccc(N3CCc4c(nc(OCC5(CN(C)C)CC5)nc4NC4CC(n5ccnn5)C4)C3)c12` (stereo not shown) [Example 703, N-(3-(1H-1,2,3-triazol-1-yl)cyclobutyl)-2-((1-((dimethylamino)methyl)cyclopropyl)methoxy)-7-(8-ethylnaphthalen-1-yl)-5,6,7,8-tetrahydropyrido[3,4-d]pyrimidin-4-amine] the IC50 (KRas G12V) was 4790 nM, the IC50 (KRas G12S) was 13500 nM and the IC50 (KRas G13D) was 16100 nM. For the same compound, the IC50 (KRas G12C) was 9490 nM, the IC50 (KRas WT) was 12400 nM and the IC50 (KRas G12D) was 10700 nM. For the same compound, the IC50 (KRas G12A) was 13500 nM and the IC50 (KRas Q61H) was 15900 nM.
With `CCc1cccc2cccc(N3CCc4c(nc(OCC5(CN(C)C)CC5)nc4NCC4COCC4n4cc(C(N)=O)nn4)C3)c12` (stereo not shown) [Example 705, 1-(4-(((2-((1-((dimethylamino)methyl)cyclopropyl)methoxy)-7-(8-ethylnaphthalen-1-yl)-5,6,7,8-tetrahydropyrido[3,4-d]pyrimidin-4-yl)amino)methyl)tetrahydrofuran-3-yl)-1H-1,2,3-triazole-4-carboxamide] the IC50 (KRas G12V) was 8520 nM, the IC50 (KRas G12S) was 20500 nM and the IC50 (KRas G13D) was 21800 nM. For the same compound, the IC50 (KRas G12C) was 10900 nM, the IC50 (KRas WT) was 13300 nM and the IC50 (KRas G12D) was 3070 nM. For the same compound, the IC50 (KRas G12A) was 16500 nM and the IC50 (KRas Q61H) was 15900 nM.
For `CCc1cccc2cccc(N3CCc4c(nc(OCC5(CN(C)C)CC5)nc4NCc4ncc(C#N)c(N)n4)C3)c12` [Example 706, 4-amino-2-(((2-((1-((dimethylamino)methyl)cyclopropyl)methoxy)-7-(8-ethylnaphthalen-1-yl)-5,6,7,8-tetrahydropyrido[3,4-d]pyrimidin-4-yl)amino)methyl)pyrimidine-5-carbonitrile], the IC50 (KRas G12V) was 2200 nM, the IC50 (KRas G12S) was 2820 nM and the IC50 (KRas G13D) was 3330 nM. It also gave an IC50 (KRas G12C) of 1680 nM, an IC50 (KRas WT) of 3310 nM and an IC50 (KRas G12D) of 7670 nM. For the same compound, the IC50 (KRas G12A) was 2810 nM and the IC50 (KRas Q61H) was 3770 nM.

From patent US20250368649A1, “TETRAHYDROPYRIDOPYRIMIDINE PAN-KRAS INHIBITORS” (Mirati Therapeutics, Inc., priority 2022, published 2025)
